How the values were obtained:
Assay type in all cases: cell-based
[1] = system: embryogenic lines of crosses with P. taeda selection 7-56; test: Recovery of transformants from elite crosses with ABA in selection media (Agrobacterium and bombardment experiments)
[2] = system: Loblolly pine (Pinus taeda) embryogenic cell lines; test: Biolistic transformation and selection of transformed sublines with or without ABA in the selection medium (Example 1)
From the text: To prepare for gene transfer, a sterile fabric support (in this example PECAP® fabric support, commercially available from SEFAR Inc.) was placed in a sterile Buchner funnel and one to five milliliters of embryogenic suspension was pipetted onto the fabric support such that the embryogenic tissue was evenly distributed over the surface. The liquid medium was suctioned from the tissues using a mild vacuum. The fabric support with embryogenic tissue was removed from the Buchner funnel and placed on a GELRITE® gelling agent solidified DCR3 preparation medium (Table 2) in 100×25 mm plastic petri dishes. Dishes were incubated in a dark growth chamber at 23°±2° C. for about 24-48 hours.
DNA was transferred into the tissues by the biolistic method described in U.S. patent application Ser. No. 09/318,136 filed on 25 May 1999 and New Zealand Patent No. 336149, each incorporated herein by reference, using the PDS-1000/He BIOLISTICS® Particle Delivery System (available from Bio-Rad Laboratories). The DNAs of interest, here containing the visual marker gene uidA and the selection gene nptII, were precipitated onto the surface of gold microparticles, which were subsequently accelerated toward embryogenic tissue to penetrate the cell walls. Once inside the cells, DNA is released from the carrier particles and integrated randomly into the chromosomes.
The petri dishes with the fabric support and embryonic tissues were then placed into the interior of the PDS 1000/He BIOLISTICS® device and vacuum applied to a level of 28 inches Hg. The gold particles carrying the DNA were accelerated toward the embryogenic tissue following a helium build-up and bursting regulated by a 1550 psi rupture disk. In the PDS-1000/He BIOLISTICS® device the gap between the rupture disk and the macrocarrier (gap distance) was five mm and the macrocarrier travel distance was 13 mm. Following DNA transfer the petri dishes containing the fabric support and tissues were incubated in a dark growth chamber at 23°±2° C. for about 24 hours. The tissues and fabric support were transferred to semi-solid maintenance medium, DCR1 (Table 2) to recover from carrier particle bombardment and incubated in a dark growth chamber at 23°±2° C. for a period of about seven days. The tissues and fabric support were transferred to a selection medium, semi-solid maintenance medium DCR1 containing a level of selection agent inhibitory to the growth of non-transformed cells. In this and subsequent examples the selection agent used was GENETICIN® antibiotic at 15-30 mg/l. The plates were incubated in a dark growth chamber at 23°±2° C. for about six to twelve weeks with the fabric supports containing the tissues being transferred to the same fresh culture medium every 2-3 weeks. […]

[3] = system: loblolly pine cell lines or hybrid cell lines; test: ABA in culture media during and after co-cultivation with Agrobacterium, all lines (Example 4)
From the text: Seven loblolly pine cell lines or hybrid cell lines from seven widely diverse genetic backgrounds were used in this experiment. To prepare for gene transfer using Agrobacterium, fabric supports were sterilized by autoclaving and placed in a sterile Buchner funnel, and one to five milliliters of embryogenic suspension was pipetted onto each support such that the embryogenic tissue was evenly distributed over its surface. Following this the liquid medium was suctioned from the tissues and each support bearing the embryogenic tissue was placed on gelled medium for inoculation by Agrobacterium. In this case the medium used was the same as the preparation medium described in Example 1 above, except that the medium, used here for preparation and co-cultivation of the cells, contained ABA at 0, 10, or 30 mg/L as an experimental condition. Genes were then introduced into the plant material by co-cultivation with Agrobacterium(Wenck et al. 1999). Specifically, gene constructs containing a reporter gene and a selectable marker were introduced into Agrobacterium tumefaciens strain EHA105 with the virulence-enhancing plasmid pTOK47 (Wenck et al. 1999), by techniques well known to those skilled in the art, and virulence was then induced with administration of acetosyringone by commonly used techniques, well known to those skilled in the art, whereupon the induced Agrobacterium was dripped over the plant material and these were co-cultivated in the dark at 23°±2° C. for approximately 24-72 hours. Those skilled in the art recognize that many different gene constructs, plasmids, strains, media, and co-cultivation times and protocols would be suitable for use in the present method.
Supports bearing approximately 0.1 g of embryogenic tissue were divided onto recovery media (having the same formulation as the maintenance medium except for the addition of 400 mg/L TIMENTIN® antibiotic) either containing or lacking ABA. […] Concentrations of ABA used in all these media were 0, 10, and 30 mg/l.
Cells were maintained on the selection media, with transfer of the polyester support membranes to fresh selection media of the same composition, every two weeks for a total of eight weeks of selection. Cells from actively growing sublines from selection were examined using stereomicroscopes for the expression of the visual marker gene uidA at the conclusion of the selection period. All of the sublines capable of active growth on selection medium were seen to express levels of the visual marker gene product that enabled them to be readily distinguished from non-selected cells. This continuing expression of the transgenes after at least twelve weeks following bombardment confirmed the integration of the transgenes in these sublines. […]

Question: What does the source list for `CC1=CC(=O)CC(C)(C)[C@@]1(O)/C=C/C(C)=C\C(=O)O` [ABA, abscisic acid]?
Answer: lines attempted from which transformants recovered ([1]; cross 7-56×9-6, ABA in the selection media): more than 80%; lines attempted from which transformants recovered ([1]; crosses with elite P. taeda selection 7-56 as a parent, ABA in selection media, media containing 5-30 mg/L ABA): more than 80%; stable transformants after nine weeks of selection ([2]; 10 mg/L ABA in medium only during the first three weeks of selection): Stable transformants were detected; stable transformants after nine weeks of selection ([2]; ABA in selection medium throughout the entire nine-week selection period): more transformants were detected; transformants from a cell line of an elite family, progeny of P. taeda elite line 7-56 ([2]; ABA in the selection medium vs none): observed only on treatments that had contained ABA in the selection medium; number of transformants obtained ([2]; ABA present during the entire period of transfer, all lines tested): equal to or greater than the number obtained for any other treatment; necrotic foci in somatic embryogenic masses ([3]; 10 or 30 mg/L ABA during and after co-cultivation with Agrobacterium vs media without ABA, all lines): fewer necrotic foci; effect on observation of transformants ([3]; 10 or 30 mg/l ABA in the preparation medium): neutral or beneficial; doubling of somatic embryogenic masses ([3]; ABA in recovery medium after co-cultivation with Agrobacterium vs no ABA, certain P. taeda lines and hybrids): able to double more rapidly; effect on observation of transformants ([3]; ABA in the recovery medium): similarly neutral or beneficial
